Experimental data reported in patent publication US4520022A, “Substituted vinyl cephalosporins” (priority 1983, dated 1985).
≈ marks a conversion by molar mass, not a printed value. Where two headings read alike, the source gives them in different places.

How the values were obtained:
[1] = tested on: Gp Ib: S. aureus 193, BX-1633-2 A9606, A15092, Russell, A9602; settings: Staphylococcus aureus
E. coli Juhl = experiment: Protective dose, mice infected with lethal inoculum, oral treatment, E. coli Juhl; type: in vivo; settings: Escherichia coli, po, 120 h, read-out: Protective dose (PD50), E. coli Juhl
in vivo = settings: mouse; for half-life: T1/2
[2] = tested on: Gp Ia: S. aureus Smith A9537, A9497, Terajima, A9534, A9601; settings: Staphylococcus aureus, read-out: Minimum Inhibitory Concentration Gp Ia, Mueller-Hinton agar; run 1; average of five organisms
S. aureus Smith = experiment: Protective dose, mice infected with lethal inoculum, oral treatment, S. aureus Smith; type: in vivo; settings: Staphylococcus aureus, po, 120 h, read-out: Protective dose (PD50), S. aureus Smith
H. influenzae = experiment: In vitro activity against Haemophilis (MIC), H. influenzae; type: cell-based; settings: Haemophilus influenzae, Compound 9 lot 2
S. pneumoniae = experiment: In vitro activity against Streptococci (MIC), S. pneumoniae; type: cell-based; settings: Streptococcus pneumoniae, Compound 9 lot 2
N. meningitidis = experiment: In vitro activity against Neisseria (MIC), N. meningitidis; type: cell-based
S. pyogenes = experiment: In vitro activity against Streptococci (MIC), S. pyogenes; type: cell-based; settings: Streptococcus pyogenes, Compound 9 lot 2
N. gonorrheae = experiment: In vitro activity against Neisseria (MIC), N. gonorrheae; type: cell-based
[3] = read-out: Minimum Inhibitory Concentration Gp Ib, Mueller-Hinton agar, run 1, average of five organisms
[4] = oral, 50% survival for 5 days, groups of 5 mice

CC/C=C\C1=C(C(=O)[O-])N2C(=O)[C@@H](NC(=O)[C@H](N)c3ccc(O)cc3)[C@H]2SC1.[Na+]
MIC ([1]; read-out: Minimum Inhibitory Concentration Gp Ib): 1.4 µg/mL
ED50 (E. coli Juhl): 3 mg/kg
AUC (in vivo; im, 20 mg/kg, AUC*, Run 1, * mean of 3 runs): 20000 ng·h/mL
Cmax (in vivo; im, 20 mg/kg): 25000 ng/mL
half-life (in vivo; im, 20 mg/kg): 0.74 h
AUC (in vivo; po, 20 mg/kg, AUC*, Run 1, * mean of 3 runs): 41000 ng·h/mL
Cmax (in vivo; po, 20 mg/kg): 13000 ng/mL
half-life (in vivo; po, 20 mg/kg): 2 h
AUC (in vivo; po, 100 mg/kg, AUC): 150000 ng·h/mL
Cmax (in vivo; po, 100 mg/kg): 51000 ng/mL
half-life (in vivo; po, 100 mg/kg): 1.9 h
MIC [2]: 0.4 µg/mL
ED50 (S. aureus Smith): 0.32 mg/kg

C/C=C/C1=C(C(=O)O)N2C(=O)[C@@H](NC(=O)[C@H](N)c3ccc(O)cc3)[C@H]2SC1 [Compound 8, 7β-[D-2-Amino-2-(p-hydroxyphenyl)acetamido]-3-[(E)-1-propen-1-yl]-3-cephem-4-carboxylic Acid]
MIC [1, 3]: 1.4 µg/mL (≈ 3.59 µM)
ED50 (E. coli Juhl; [4]): 7.5 mg/kg
AUC (in vivo; im, 20 mg/kg, AUC*): 31000 ng·h/mL
Cmax (in vivo; im, 20 mg/kg): 31000 ng/mL
half-life (in vivo; im, 20 mg/kg): 0.63 h
AUC (in vivo; po, 20 mg/kg, AUC*): 22000 ng·h/mL
Cmax (in vivo; po, 20 mg/kg): 10000 ng/mL
half-life (in vivo; po, 20 mg/kg): 1.3 h
AUC (in vivo; po, 100 mg/kg, AUC): 69000 ng·h/mL
Cmax (in vivo; po, 100 mg/kg): 30000 ng/mL
half-life (in vivo; po, 100 mg/kg): 1.4 h
MIC [2]: 0.26 µg/mL (≈ 0.668 µM)
ED50 (S. aureus Smith; [4]): 0.2 mg/kg

C=CC1=C(C(=O)O)N2C(=O)[C@@H](NC(=O)[C@H](N)c3ccc(O)cc3)[C@H]2SC1 [Compound 11]
MIC [1, 3]: 1.2 µg/mL (≈ 3.2 µM)
ED50 (E. coli Juhl; [4]): 3.8 mg/kg
AUC (in vivo; im, 20 mg/kg, AUC*): 15000 ng·h/mL
Cmax (in vivo; im, 20 mg/kg): 23000 ng/mL
half-life (in vivo; im, 20 mg/kg): 0.37 h
AUC (in vivo; po, 20 mg/kg, AUC*): 13000 ng·h/mL
Cmax (in vivo; po, 20 mg/kg): 11000 ng/mL
half-life (in vivo; po, 20 mg/kg): 1.4 h
AUC (in vivo; po, 100 mg/kg, AUC): 49000 ng·h/mL
Cmax (in vivo; po, 100 mg/kg): 43000 ng/mL
half-life (in vivo; po, 100 mg/kg): 1.2 h
MIC [2]: 0.4 µg/mL (≈ 1.07 µM)
ED50 (S. aureus Smith; [4]): 0.18 mg/kg

N[C@@H](C(=O)N[C@@H]1C(=O)N2C(C(=O)O)=C(/C=C\Cc3ccccc3)CS[C@H]12)c1ccc(O)cc1 [Compound 15, 7β-[D-2-Amino-2-(p-hydroxyphenyl)acetamido]-3-[(Z)-3-phenyl-1-propen-1-yl]-3-cephem-4-carboxylic acid]
MIC [1, 3]: 0.7 µg/mL (≈ 1.5 µM)
MIC (H. influenzae; H. influenzae A9729, read-out: MIC): > 100 µg/mL
MIC (H. influenzae; H. influenzae A9833, read-out: MIC): > 100 µg/mL
MIC (H. influenzae; H. influenzae A20177, read-out: MIC): > 100 µg/mL
MIC (H. influenzae; H. influenzae A20193, read-out: MIC): > 100 µg/mL
MIC (H. influenzae; H. influenzae A21523, read-out: MIC): > 100 µg/mL
MIC (H. influenzae; H. influenzae A22157, read-out: MIC): 25 µg/mL (≈ 53.7 µM)
MIC (H. influenzae; H. influenzae A22481, read-out: MIC): 25 µg/mL (≈ 53.7 µM)
MIC (H. influenzae; H. influenzae A22482, read-out: MIC): > 100 µg/mL
MIC (H. influenzae; H. influenzae A22483, read-out: MIC): > 100 µg/mL
MIC (H. influenzae; H. influenzae A22491, read-out: MIC): 25 µg/mL (≈ 53.7 µM)
MIC (H. influenzae; H. influenzae, seven strains above, read-out: MIC, Geometric Mean): > 100 µg/mL
AUC (in vivo; im, 20 mg/kg, AUC*): 52000 ng·h/mL
Cmax (in vivo; im, 20 mg/kg): 31000 ng/mL
half-life (in vivo; im, 20 mg/kg): 0.99 h
AUC (in vivo; po, 20 mg/kg, AUC*): 38000 ng·h/mL
Cmax (in vivo; po, 20 mg/kg): 12000 ng/mL
half-life (in vivo; po, 20 mg/kg): 2.7 h
AUC (in vivo; po, 100 mg/kg, AUC): 81000 ng·h/mL
Cmax (in vivo; po, 100 mg/kg): 41000 ng/mL
half-life (in vivo; po, 100 mg/kg): 2.7 h
MIC (S. pneumoniae; S. pneumoniae A9585, read-out: MIC): 0.4 µg/mL (≈ 0.859 µM)
MIC (S. pneumoniae; S. pneumoniae A15069, read-out: MIC): 0.2 µg/mL (≈ 0.43 µM)
MIC (S. pneumoniae; S. pneumoniae A20759, read-out: MIC): 0.4 µg/mL (≈ 0.859 µM)
MIC (S. pneumoniae; S. pneumoniae Type I, read-out: MIC): 0.2 µg/mL (≈ 0.43 µM)
MIC (S. pneumoniae; S. pneumoniae Type II, I, III, A9585, A15069, read-out: MIC, Geometric Mean): 0.23 µg/mL (≈ 0.494 µM)
MIC (S. pneumoniae; S. pneumoniae Type II, read-out: MIC): 0.2 µg/mL (≈ 0.43 µM)
MIC (S. pneumoniae; S. pneumoniae Type III, read-out: MIC): 0.2 µg/mL (≈ 0.43 µM)
MIC (N. meningitidis; N. meningitidis A21487, Compound 9 lot 2): > 100 µg/mL
MIC (N. meningitidis; N. meningitidis A21496, Compound 9 lot 2): > 100 µg/mL
MIC (N. meningitidis; N. meningitidis A21497, Compound 9 lot 2): > 100 µg/mL
MIC (N. meningitidis; Neisseria meningitidis, read-out: MIC): > 100 µg/mL
MIC (N. meningitidis; Neisseria meningitidis, read-out: MIC, Geometric Mean): > 100 µg/mL
MIC [2]: 0.2 µg/mL (≈ 0.43 µM)
MIC (S. pyogenes; S. pyogenes A9604, read-out: MIC): 0.2 µg/mL (≈ 0.43 µM)
MIC (S. pyogenes; S. pyogenes A15040, read-out: MIC): 0.2 µg/mL (≈ 0.43 µM)
MIC (S. pyogenes; S. pyogenes A20065, read-out: MIC): 0.2 µg/mL (≈ 0.43 µM)
MIC (S. pyogenes; S. pyogenes A20201, read-out: MIC): 0.2 µg/mL (≈ 0.43 µM)
MIC (S. pyogenes; S. pyogenes Dick, read-out: MIC): 0.2 µg/mL (≈ 0.43 µM)
MIC (S. pyogenes; S. pyogenes S-23, Dick, A9604, A20065, A15040, read-out: MIC, Geometric Mean): 0.2 µg/mL (≈ 0.43 µM)
MIC (S. pyogenes; S. pyogenes S-23, read-out: MIC): 0.2 µg/mL (≈ 0.43 µM)
MIC (N. gonorrheae; N. gonorrheae A20142, Compound 9 lot 2): > 100 µg/mL
MIC (N. gonorrheae; N. gonorrheae A20143, Compound 9 lot 2): > 100 µg/mL
MIC (N. gonorrheae; N. gonorrheae A20154, Compound 9 lot 2): > 100 µg/mL
MIC (N. gonorrheae; N. gonorrheae A20155, Compound 9 lot 2): > 100 µg/mL
MIC (N. gonorrheae; read-out: MIC): > 100 µg/mL
MIC (N. gonorrheae; read-out: MIC, Geometric Mean): > 100 µg/mL
